Assay results: patent publication US20050245563A1 (Millennium Pharmaceuticals, Inc., priority 2003, published 2005)

These molecules were tested against T1, human Chk1 (GST-Chk1) (Homo sapiens, UniProt O14757) (assay: Chk1 DELFIA kinase assay (2 nM GST-Chk1, 600 μM ATP)). Conditions: Biotin-GLYRSPSMPEN-amide substrate.
T1 construct: made in house; host or cells: insect cells (baculovirus, Bac-to-Bac)
T1 sequence (O14757 1-476): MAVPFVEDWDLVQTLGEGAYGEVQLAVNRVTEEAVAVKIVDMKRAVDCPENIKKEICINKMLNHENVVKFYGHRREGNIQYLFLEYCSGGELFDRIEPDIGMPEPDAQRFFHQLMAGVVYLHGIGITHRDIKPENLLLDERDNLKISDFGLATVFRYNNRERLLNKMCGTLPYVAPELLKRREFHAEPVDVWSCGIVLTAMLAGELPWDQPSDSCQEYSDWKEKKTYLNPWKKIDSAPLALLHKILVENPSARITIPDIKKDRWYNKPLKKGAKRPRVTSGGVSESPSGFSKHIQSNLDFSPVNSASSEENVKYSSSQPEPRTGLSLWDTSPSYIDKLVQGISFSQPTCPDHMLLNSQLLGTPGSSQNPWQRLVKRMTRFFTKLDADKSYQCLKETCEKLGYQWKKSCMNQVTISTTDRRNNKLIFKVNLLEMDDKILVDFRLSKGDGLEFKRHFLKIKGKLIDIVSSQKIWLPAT
Format: biochemical
How it was run: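 Enzyme is N-terminal GST-Chk1 from baculovirus/insect cells, assayed with 1 μM biotin-GLYRSPSMPEN-amide in pH 7.5 Tris buffer, 4% DMSO and 10 mM MgCl2 for 50 min at room temperature. EDTA-stopped reactions were captured on NeutrAvidin. Phospho-peptide was detected by anti-phospho-Ser216-Cdc25c antibody with europium-labeled secondary and time-resolved fluorescence.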

Structure (SMILES)	IC50 [µM]
CCCNCCCn1c(=O)c2c(C)[nH]nc2c2cc(Cl)ccc21 [Example 239, 8-Chloro-3-methyl-5-(3-propylamino-propyl)-2,5-dihydro-pyrazolo[4,3-c]quinolin-4-one]	< 1
Cc1[nH]nc2c1c(=O)n(CCCN)c1ccc(C#CCN(C)Cc3ccccc3)cc21 [Example 275, 5-(3-Amino-propyl)-8-[3-(benzyl-methyl-amino)-prop-1-ynyl]-3-methyl-2,5-dihydro-pyrazolo[4,3-c]quinolin-4-one]	< 1
COCCc1[nH]nc2c1c(=O)n(CCCN)c1ccc(Cl)cc21 [Compound 206, 5-(3-Amino-propyl)-8-chloro-3-(2-methoxyethyl)-2,5-dihydro-pyrazolo[4,3-c]quinolin-4-one]	< 1
Cc1[nH]nc2c1c(=O)n(CCCN)c1ccc(CCc3cccnc3)cc21 [Example 353, 5-(3-Amino-propyl)-3-methyl-8-(2-pyridin-3-yl-ethyl)-2,5-dihydro-pyrazolo[4,3-c]quinolin-4-one]	< 1
Cc1[nH]nc2c1c(=O)n(CCCN)c1ccc(N3CCCC3)cc21 [Example 310, 5-(3-Amino-propyl)-3-methyl-8-pyrrolidin-1-yl-2,5-dihydro-pyrazolo[4,3-c]quinolin-4-one]	< 1
Cc1[nH]nc2c1c(=O)n(CCCN)c1ccc(C#CCN)cc21 [Example 273, 5-(3-Amino-propyl)-8-(3-amino-prop-1-ynyl]-3-methyl 2,5-dihydro-pyrazolo[4,3-c]quinolin-4-one]	< 1
CCNCCCn1c(=O)c2c(C)[nH]nc2c2cc(Cl)ccc21 [Example 238, 8-Chloro-5-(3-ethylamino-propyl)-3-methyl-2,5-dihydro-pyrazolo[4,3-c]quinolin-4-one]	< 1

Other lines, results leading:

IC50 [µM]	Structure (SMILES)
< 1	C#Cc1ccc2c(c1)c1n[nH]c(CC)c1c(=O)n2CCCN [Compound 360, 5-(3-Amino-propyl)-3-ethyl-8-ethynyl-2,5-dihydro-pyrazolo[4,3-c]quinolin-4-one]
< 1	COCCc1[nH]nc2c1c(=O)n(C[C@H]1CCCNC1)c1ccc(Cl)cc21 [Example 227, 8-Chloro-3-(2-methoxy-ethyl)-5S-piperidin-3-ylmethyl-2,5-dihydro-pyrazolo[4,3-c]quinolin-4-one]
< 1	CCc1[nH]nc2c1c(=O)n(CCCNC)c1ccc(Cl)cc21 [Example 331, 8-Chloro-3-ethyl-5-(3-methylamino-propyl)-2,5-dihydro-pyrazolo[4,3-c]quinolin4-one]
< 1	C#Cc1ccc2c(c1)c1n[nH]c(C)c1c(=O)n2CCCN [Example 291, 5-(3-Amino-propyl)-8-ethynyl-3-methyl-2,5-dihydro-pyrazolo[4,3-c]quinolin-4-one]
< 1	Cc1[nH]nc2c1c(=O)n(CCC(O)Cn1ccnc1)c1ccc(Cl)cc21 (stereo not drawn) [Compound 252, 8-Chloro-5-(3-hydroxy-4-imidazol-1-yl-butyl)-3-methyl-2,5-dihydro-pyrazolo[4,3-c]quinolin-4-one]
